From patent publication US8906349B2, “Oral care composition” (priority 2009, dated 2014)
Converted amounts (≈) assume the structure as drawn. Read-outs that look alike come from different tables or passages of the source.

How the values were obtained:
Assay type in all cases: cell-based
A. viscosus biofilm [1] = assay: Bioenhancement assay: BEC50 of antimicrobial agents with or without bisabolol, crystal violet, 24 h (Examples 4 and 5)
[2] = test system: five-species biofilm: A. viscosus, Lactobacillus casei, Streptococcus oralis, Fusobacterium nucleatum and Veillonella parvula; assay: Multispecies biofilm formation on saliva coated hydroxyapatite disks, 48 h, OD610 (Example 6); conditions: 20 ppm of Triclosan alone, FIG. 5
Description: The ability of compositions comprising Triclosan and bisabolol either alone or in combination to inhibit biofilm formation were tested in a multispecies model where the biofilms comprised five representative oral bacterial species: A. viscosus, Lactobacillus casei, Streptococcus oralis, Fusobacterium nucleatum and Veillonella parvula. Saliva coated hydroxyapatite (HAP) disks were inoculated with this five-species mix of bacteria in the presence Triclosan alone, bisabolol alone or with a 2:1 concentration of bisabolol:Triclosan. Disks were incubated for 48 h to allow biofilm formation to occur. Biofilm containing disks are were incubated in 1 ml of 0.25% trypsin solution for 45 min at 37° C. to release the biofilm and biomass was read as the OD610 of the trypsin solution.
In order to determine any antibiofilm effect beyond that of Triclosan, it was necessary to reduce the concentration of Triclosan below the inhibitory concentration. […]

A. viscosus = assay: Minimum inhibitory concentration, serial dilution in 96-well plate, 24 h; conditions: Actinomyces viscosus, read-out: MIC (A. viscosus)
Description: The minimum inhibitory concentration for actives was determined by incubating Actinomyces viscosus bacteria with serial dilutions of the active for 24 hours and determining the lowest concentration at which growth of this species was inhibited. Briefly, 100 μl final volume actives were serially diluted in 0.5× tryptic soy broth (TSB) across duplicate wells of a 96-well flat bottom microtiter plate. An overnight culture of bacteria was diluted to an OD610 ˜0.2 and 100 μl of this was added to each well. Plates were incubated overnight at 37° C. OD610 was read for each well and the MIC was determined as the concentration of active in the last well where bacterial growth was inhibited.

A. viscosus biofilm [3] = assay: Biofilm Eradication Concentration (BEC50), crystal violet biomass, compositions serially diluted (Example 3); conditions: FIG. 2; for BEC(50) alone: active tested alone, lowest concentration with >50% reduction in biomass vs media control; for BEC50 in combination: bisabolol (0.7%) and Triclosan (0.05%) composition serially diluted, concentration of the named active in the combination
Description: A composition comprising bisabolol, a composition comprising the antibacterial agent Triclosan and a composition comprising both bisabolol and Triclosan were tested for antibiofilm activity.
A composition comprising bisabolol (0.7%), a composition comprising Triclosan (0.05%) and a composition comprising bisabolol (0.7%) and Triclosan (0.05%) were each serially diluted in a 96-well plate. A. viscosus cultures were added to each well and plates were incubated at 37° C. to allow biofilm formation to occur. Following biofilm formation, supernatants were removed and wells were stained with 0.6% crystal violet for 15 min. Biofilm biomass was quantified by reading the absorbance of each well at 590 nm and the percentage reduction in biomass relative to a control of media alone was calculated.
BEC50 is defined as the minimum concentration at which a greater than 50% reduction of biofilm formation is observed.

A. viscosus biofilm [4] = assay: Inhibition of single-species biofilm formation by serial dilutions of bisabolol (Example 2); conditions: bisabolol alone, 24 hours, FIG. 1
Description: The effect of different concentrations of bisabolol on the inhibition of A. viscosus biofilm formation was tested. A. viscosus bacteria were grown for 24 hours in the presence of serial dilutions of bisabolol or an equivalent concentration of EtOH. Wells were stained to visualize biofilm formation. The results are shown in FIG. 1 where the x-axis represents the concentration of bisabolol (or an equivalent solution of EtOH in media) and the y-axis represents the percent reduction in biofilm relative to control wells grown in media alone.

[5] = Table 2, absence of bisabolol, FIG. 4a
[6] = Table 2, presence of 50 ppm bisabolol, FIG. 4a
[7] = first Table 3, said to be raw data of FIG. 4b, absence of bisabolol
[8] = first Table 3, said to be raw data of FIG. 4b, presence of 50 ppm bisabolol

Row | Compound | BEC(50) alone (A. viscosus biofilm [1]; [5]) | BEC(50) w/bisabolol (A. viscosus biofilm [1]; [6]) | BEC(50) alone (A. viscosus biofilm [1]; [7]) | BEC(50) w/bisabolol (A. viscosus biofilm [1]; [8]) | reduction in biofilm formation [2] [%] | BEC50 of Triclosan alone (A. viscosus biofilm [1]; Example 4, no bisabolol, FIG. 3) [ppm] | BEC50 of Triclosan in the composition comprising bisabolol (A. viscosus biofilm [1]; Example 4, with 5 ppm bisabolol, FIG. 3) [ppm] | MIC (A. viscosus) [µg/mL] | BEC(50) alone (A. viscosus biofilm [3]) | BEC50 in combination (A. viscosus biofilm [3]) [ppm] | lowest concentration inhibiting formation of single-species biofilms (A. viscosus biofilm [4]) [ppm] | MIC (A. viscosus; lowest concentration inhibiting growth, overnight at 37° C., 0.5× TSB) [µg/mL]
1 | CCCCCCCCCCCCCCCC[n+]1ccccc1 [CPC, cetyl pyridinium chloride] | 0.6836 | 0.4883 | 0.1196 | 1.7999E−07 |  |  |  |  |  |  |  | 
2 | C=CCc1ccc(O)c(-c2cc(CC=C)ccc2O)c1 [magnolol] | 3.906 | 0.8789 | 1.07 | 0.2847 |  |  |  |  |  |  |  | 
3 | Oc1cc(Cl)ccc1Oc1ccc(Cl)cc1Cl [Triclosan] | 1.465 | 0.4883 | 0.2819 | 0 | > 60 | 4.13 | 1.78 | 3.5 (≈ 12.1 µM) | approximately 3.9 ppm | 1.95 |  | 
4 | [F][Sn][F] [stannous flouride, stannous fluoride] | 312.5 | 86.06 | 0 | 75.56 |  |  |  |  |  |  |  | 
5 | CCCc1ccc(O)c(-c2ccc(O)c(CCC)c2)c1 [propyl honokiol] | 2.344 | 1.367 | 0.3906 | 0.2392 |  |  |  |  |  |  |  | 
6 | [Cl][Sn][Cl] [stannous chloride] | 234.375 | 161.1 | 45.11 | 59.87 |  |  |  |  |  |  |  | 
7 | O=C([O-])CC(O)(CC(=O)[O-])C(=O)[O-].O=C([O-])CC(O)(CC(=O)[O-])C(=O)[O-].[Zn+2].[Zn+2].[Zn+2] [zinc citrate] | 208.3 | 19.53 | 52.08 | 9.766 |  |  |  |  |  |  |  | 
8 | CCCCc1ccc(O)c(-c2cc(CCCC)ccc2O)c1 [butyl magnolol] | 0.5859 | 0.5859 | 0.09766 | 0.09766 |  |  |  |  |  |  |  | 
9 | C=CCc1ccc(O)c(-c2ccc(O)c(CC=C)c2)c1 [honokiol] | 13.38 | 5.176 | 5.41 | 2.69 |  |  |  |  |  |  |  | 
10 | catechin | 812.5 | 618.75 | 187.5 | 233.5 |  |  |  |  |  |  |  | 
11 | CC(C)=CCC[C@](C)(O)C1CC=C(C)CC1 (some centres unmarked) [Bisabolol] |  |  |  |  |  |  |  |  | 110 ppm | 27.3 | 110 | 125 (≈ 562 µM)
